Here are results for 34 substances from patent US8969516B2, “Method of hydrolysis of peptide bond” (priority 2006, dated 2015).

The series can be described thus: MALDI-TOF screening of Ni^2+ dependent hydrolysis in a combinatorial peptide library. Type of series: physicochemical. As to conditions: CH3CO-Gly-Ala-Thr-X-His-Z-Lys-Phe-Leu-NH2 library, Ni^2+ 2 mM, pH 8.2, 10 mM Tris, score=24/tm. In outline:
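Ni2+ 2 mM, peptide pool 1 mM (total), 10 mM Tris pH 8.2; 37 °C and 45 °C in parallel; MS aliquots at 2/4/6/8 h; products detected visually. X: all proteinogenic residues except Asp, Glu, Cys; Z: all except Cys.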

As to Ac-GATLHGKFL-NH2 [TLHG], the “hydrolysis score from MALDI-TOF screening” value (“hydrolysis score” for short) runs as follows: (37° C.) 0 (a score of 0 if no trace of the product of hydrolysis was seen after 8 hours of incubation); (45° C.) 0 (a score of 0 if no trace of the product of hydrolysis was seen after 8 hours of incubation).

Take Ac-GATLHHKFL-NH2 [TLHH]: the “hydrolysis score” value reads like this: (37° C.) 0 (a score of 0 if no trace of the product of hydrolysis was seen after 8 hours of incubation); (45° C.) 0 (a score of 0 if no trace of the product of hydrolysis was seen after 8 hours of incubation).

As for Ac-GATLHIKFL-NH2 [TLHI], the “hydrolysis score” value runs as follows: (37° C.) 0 (a score of 0 if no trace of the product of hydrolysis was seen after 8 hours of incubation); (45° C.) 0 (a score of 0 if no trace of the product of hydrolysis was seen after 8 hours of incubation).

Turning to Ac-GATLHKKFL-NH2 [TLHK], the “hydrolysis score” value reads like this: (37° C.) 0 (a score of 0 if no trace of the product of hydrolysis was seen after 8 hours of incubation); (45° C.) 3 (a score of 3 for detection at 8 hours).

Turning to Ac-GATLHLKFL-NH2 [TLHL], the “hydrolysis score” value runs as follows: (37° C.) 0 (a score of 0 if no trace of the product of hydrolysis was seen after 8 hours of incubation); (45° C.) 0 (a score of 0 if no trace of the product of hydrolysis was seen after 8 hours of incubation).

As for Ac-GATLHMKFL-NH2 [TLHM], the “hydrolysis score” value by setting is: (37° C.) 0 (a score of 0 if no trace of the product of hydrolysis was seen after 8 hours of incubation); (45° C.) 0 (a score of 0 if no trace of the product of hydrolysis was seen after 8 hours of incubation).

For Ac-GATLHNKFL-NH2 [TLHN], the “hydrolysis score” value is, setting by setting: (37° C.) 0 (a score of 0 if no trace of the product of hydrolysis was seen after 8 hours of incubation); (45° C.) 0 (a score of 0 if no trace of the product of hydrolysis was seen after 8 hours of incubation).

With Ac-GATLHPKFL-NH2 [TLHP], the “hydrolysis score” value is given as 0 (a score of 0 if no trace of the product of hydrolysis was seen after 8 hours of incubation) (37° C.) and 0 (a score of 0 if no trace of the product of hydrolysis was seen after 8 hours of incubation) (45° C.).

As to Ac-GATLHQKFL-NH2 [TLHQ], the “hydrolysis score” value runs as follows: (37° C.) 0 (a score of 0 if no trace of the product of hydrolysis was seen after 8 hours of incubation); (45° C.) 0 (a score of 0 if no trace of the product of hydrolysis was seen after 8 hours of incubation).

Consider Ac-GATLHRKFL-NH2 [TLHR], for which the “hydrolysis score” value reads like this: (37° C.) 0 (a score of 0 if no trace of the product of hydrolysis was seen after 8 hours of incubation); (45° C.) 3 (a score of 3 for detection at 8 hours).

Ac-GATLHSKFL-NH2 [TLHS]: the “hydrolysis score” value runs as follows: (37° C.) 0 (a score of 0 if no trace of the product of hydrolysis was seen after 8 hours of incubation); (45° C.) 0 (a score of 0 if no trace of the product of hydrolysis was seen after 8 hours of incubation).

Ac-GATLHTKFL-NH2 [TLHT]: the “hydrolysis score” value reads like this: (37° C.) 0 (a score of 0 if no trace of the product of hydrolysis was seen after 8 hours of incubation); (45° C.) 0 (a score of 0 if no trace of the product of hydrolysis was seen after 8 hours of incubation).

As for Ac-GATLHVKFL-NH2 [TLHV], the “hydrolysis score” value is, setting by setting: (37° C.) 0 (a score of 0 if no trace of the product of hydrolysis was seen after 8 hours of incubation); (45° C.) 0 (a score of 0 if no trace of the product of hydrolysis was seen after 8 hours of incubation).

Regarding Ac-GATLHWKFL-NH2 [TLHW], the “hydrolysis score” value is, setting by setting: (37° C.) 3 (a score of 3 for detection at 8 hours); (45° C.) 3 (a score of 3 for detection at 8 hours).

With Ac-GATLHYKFL-NH2 [TLHY], the “hydrolysis score” value is 0 (a score of 0 if no trace of the product of hydrolysis was seen after 8 hours of incubation) (37° C.) and 0 (a score of 0 if no trace of the product of hydrolysis was seen after 8 hours of incubation) (45° C.).

Consider Ac-GATMHAKFL-NH2 [TMHA], for which the “hydrolysis score” value reads like this: (37° C.) 0 (a score of 0 if no trace of the product of hydrolysis was seen after 8 hours of incubation); (45° C.) 0 (a score of 0 if no trace of the product of hydrolysis was seen after 8 hours of incubation).

Take Ac-GATMHDKFL-NH2 [TMHD]: the “hydrolysis score” value by setting is: (37° C.) 0 (a score of 0 if no trace of the product of hydrolysis was seen after 8 hours of incubation); (45° C.) 0 (a score of 0 if no trace of the product of hydrolysis was seen after 8 hours of incubation).

Ac-GATMHEKFL-NH2 [TMHE]: the “hydrolysis score” value (37° C.) is 0 (a score of 0 if no trace of the product of hydrolysis was seen after 8 hours of incubation) and the “hydrolysis score” value (45° C.) is 0 (a score of 0 if no trace of the product of hydrolysis was seen after 8 hours of incubation).

With Ac-GATMHFKFL-NH2 [TMHF], the “hydrolysis score” value (37° C.) is listed as 0 (a score of 0 if no trace of the product of hydrolysis was seen after 8 hours of incubation) and the “hydrolysis score” value (45° C.) is listed as 0 (a score of 0 if no trace of the product of hydrolysis was seen after 8 hours of incubation).

Turning to Ac-GATMHGKFL-NH2 [TMHG], the “hydrolysis score” value is given as 0 (a score of 0 if no trace of the product of hydrolysis was seen after 8 hours of incubation) (37° C.) and 0 (a score of 0 if no trace of the product of hydrolysis was seen after 8 hours of incubation) (45° C.).

Consider Ac-GATMHHKFL-NH2 [TMHH], for which the “hydrolysis score” value runs as follows: (37° C.) 0 (a score of 0 if no trace of the product of hydrolysis was seen after 8 hours of incubation); (45° C.) 0 (a score of 0 if no trace of the product of hydrolysis was seen after 8 hours of incubation).

With Ac-GATMHIKFL-NH2 [TMHI], the “hydrolysis score” value is, setting by setting: (37° C.) 0 (a score of 0 if no trace of the product of hydrolysis was seen after 8 hours of incubation); (45° C.) 0 (a score of 0 if no trace of the product of hydrolysis was seen after 8 hours of incubation).

As to Ac-GATMHKKFL-NH2 [TMHK], the “hydrolysis score” value was 0 (a score of 0 if no trace of the product of hydrolysis was seen after 8 hours of incubation) (37° C.) and 3 (a score of 3 for detection at 8 hours) (45° C.).

Consider Ac-GATMHLKFL-NH2 [TMHL], for which the “hydrolysis score” value is recorded as 0 (a score of 0 if no trace of the product of hydrolysis was seen after 8 hours of incubation) (37° C.) and 0 (a score of 0 if no trace of the product of hydrolysis was seen after 8 hours of incubation) (45° C.).

Ac-GATMHMKFL-NH2 [TMHM]: the “hydrolysis score” value reads like this: (37° C.) 0 (a score of 0 if no trace of the product of hydrolysis was seen after 8 hours of incubation); (45° C.) 0 (a score of 0 if no trace of the product of hydrolysis was seen after 8 hours of incubation).

With Ac-GATMHNKFL-NH2 [TMHN], the “hydrolysis score” value is recorded as 0 (a score of 0 if no trace of the product of hydrolysis was seen after 8 hours of incubation) (37° C.) and 0 (a score of 0 if no trace of the product of hydrolysis was seen after 8 hours of incubation) (45° C.).

With Ac-GATMHPKFL-NH2 [TMHP], the “hydrolysis score” value (37° C.) is 0 (a score of 0 if no trace of the product of hydrolysis was seen after 8 hours of incubation) and the “hydrolysis score” value (45° C.) is given as 0 (a score of 0 if no trace of the product of hydrolysis was seen after 8 hours of incubation).

For Ac-GATMHQKFL-NH2 [TMHQ], the “hydrolysis score” value (37° C.) is on record as 0 (a score of 0 if no trace of the product of hydrolysis was seen after 8 hours of incubation) and the “hydrolysis score” value (45° C.) was 0 (a score of 0 if no trace of the product of hydrolysis was seen after 8 hours of incubation).

Consider Ac-GATMHSKFL-NH2 [TMHS], for which the “hydrolysis score” value reads like this: (37° C.) 0 (a score of 0 if no trace of the product of hydrolysis was seen after 8 hours of incubation); (45° C.) 0 (a score of 0 if no trace of the product of hydrolysis was seen after 8 hours of incubation).

As to Ac-GATMHTKFL-NH2 [TMHT], the “hydrolysis score” value was 0 (a score of 0 if no trace of the product of hydrolysis was seen after 8 hours of incubation) (37° C.) and 0 (a score of 0 if no trace of the product of hydrolysis was seen after 8 hours of incubation) (45° C.).

In the case of Ac-GATMHVKFL-NH2 [TMHV], the “hydrolysis score” value is reported as 0 (a score of 0 if no trace of the product of hydrolysis was seen after 8 hours of incubation) (37° C.) and 0 (a score of 0 if no trace of the product of hydrolysis was seen after 8 hours of incubation) (45° C.).

Take Ac-GATMHWKFL-NH2 [TMHW]: the “hydrolysis score” value is, setting by setting: (37° C.) 3 (a score of 3 for detection at 8 hours); (45° C.) 3 (a score of 3 for detection at 8 hours).

For Ac-GATMHYKFL-NH2 [TMHY], the “hydrolysis score” value is 0 (a score of 0 if no trace of the product of hydrolysis was seen after 8 hours of incubation) (37° C.) and 0 (a score of 0 if no trace of the product of hydrolysis was seen after 8 hours of incubation) (45° C.).

Turning to Ac-GATNHAKFL-NH2 [TNHA], the “hydrolysis score” value is recorded as 0 (a score of 0 if no trace of the product of hydrolysis was seen after 8 hours of incubation) (37° C.) and 0 (a score of 0 if no trace of the product of hydrolysis was seen after 8 hours of incubation) (45° C.).
